# Measurements as given in ChEMBL document CHEMBL5518188, “Discovery of 4-amino-1,6-dihydro-7H-pyrrolo[2,3-d]pyridazin-7-one derivatives as potential receptor-interacting serine/threonine-protein kinase 1 (RIPK1) inhibitors” (Eur J Med Chem, 2024).
# Assays:
# [1] = biological target: T1, Receptor-interacting serine/threonine-protein kinase 1 (Homo sapiens, UniProt Q13546); assay: Inhibition of RIPK1 (unknown origin) in presence of ATP by kinaseProfiler assay
# T1 sequence (Q13546 whole entry): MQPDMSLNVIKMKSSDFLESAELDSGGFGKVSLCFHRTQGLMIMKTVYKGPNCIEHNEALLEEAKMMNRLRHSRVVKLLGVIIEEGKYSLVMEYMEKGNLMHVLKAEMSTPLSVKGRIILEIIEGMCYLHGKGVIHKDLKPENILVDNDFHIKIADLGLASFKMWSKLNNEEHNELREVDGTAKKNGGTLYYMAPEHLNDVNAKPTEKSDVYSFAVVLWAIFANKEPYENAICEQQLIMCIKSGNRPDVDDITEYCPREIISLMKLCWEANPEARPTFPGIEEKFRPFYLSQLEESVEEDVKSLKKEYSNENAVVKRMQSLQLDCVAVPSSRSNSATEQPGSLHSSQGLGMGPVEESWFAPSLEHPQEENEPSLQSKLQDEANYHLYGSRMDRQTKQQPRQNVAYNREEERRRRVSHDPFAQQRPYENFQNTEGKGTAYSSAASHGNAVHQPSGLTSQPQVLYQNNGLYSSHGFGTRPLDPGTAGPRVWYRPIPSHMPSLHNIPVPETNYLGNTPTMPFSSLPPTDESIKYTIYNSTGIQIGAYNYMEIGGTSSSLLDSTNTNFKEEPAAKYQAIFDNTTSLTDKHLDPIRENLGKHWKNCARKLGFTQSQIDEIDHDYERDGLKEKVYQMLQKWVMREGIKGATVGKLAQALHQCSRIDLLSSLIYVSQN
# HT-29 = assay: Anti-necroptosis activity against TSZ-induced human HT-29 cells; type: functional, cell-based
# U-937 = assay: Anti-necroptosis activity against TSZ-induced human U-937 cells; type: functional, cell-based
# L929 = assay: Anti-necroptosis activity against TSZ-induced mouse L929 cells; type: functional, cell-based
# [2] = Metabolic stability in cryopreserved human liver microsome assessed as half life; type: ADME; details: cryopreserved liver microsomes
SMILES,IC50 [1],half-life [2],EC50 (HT-29),EC50 (U-937),EC50 (L929)
NC(=O)c1cc(-c2ccc3c(c2)CCN3C(=O)Cc2cccc(OC(F)(F)F)c2)ccc1N,> 1000 nM,,,,
CCn1nc(-c2ccc3c(c2)CCN3C(=O)C2(c3ccccc3)CC2)c2c(N)n[nH]c(=O)c21,> 1000 nM,,> 1000 nM,> 1000 nM,> 1000 nM
NC(=O)c1cccc(-c2ccc3c(c2)CCN3C(=O)Cc2cccc(OC(F)(F)F)c2)c1,102 nM,,,,
CC1(Cn2cc(-c3ccc4c(c3)CCN4C(=O)Cc3cccc(C(F)(F)F)c3)c3c(N)n[nH]c(=O)c32)COC1,48.7 nM,85.6 min,33 nM,22 nM,1.58 nM
CCn1nc(-c2ccc3c(c2)CCN3C(=O)Cc2cc(F)cc(C(F)(F)F)c2)c2c(N)n[nH]c(=O)c21,475 nM,,331 nM,283 nM,12.8 nM
NC(=O)c1cncc(-c2ccc3c(c2)CCN3C(=O)Cc2cccc(OC(F)(F)F)c2)c1,157 nM,,,,
CCn1nc(-c2ccc3c(c2)CCN3C(=O)[C@H](C)c2ccccc2)c2c(N)n[nH]c(=O)c21,> 1000 nM,,> 1000 nM,> 1000 nM,> 1000 nM
CCn1nc(-c2ccc3c(c2)CCN3C(=O)Cc2cccc(OC)c2)c2c(N)n[nH]c(=O)c21,> 1000 nM,,,,
CCNc1ncnc(N)c1-c1ccc2c(c1)CCN2C(=O)Cc1cccc(OC(F)(F)F)c1,> 1000 nM,,,,
CCn1nc(-c2ccc3c(c2)CCN3C(=O)Cc2cccc(F)c2F)c2c(N)n[nH]c(=O)c21,> 1000 nM,,579 nM,946 nM,123 nM
CCn1nc(-c2ccc3c(c2)CCN3C(=O)Cc2ccccc2)c2c(N)n[nH]c(=O)c21,> 1000 nM,,546 nM,1020 nM,142 nM
CCn1nc(-c2ccc3c(c2)CCN3C(=O)Cc2ccc(Oc3ccccc3)cc2)c2c(N)n[nH]c(=O)c21,941 nM,,905 nM,812 nM,311 nM
CCn1nc(-c2ccc3c(c2)CCN3C(=O)CCc2cccc(C(F)(F)F)c2)c2c(N)n[nH]c(=O)c21,111 nM,,19.3 nM,33 nM,4.71 nM
CCn1nc(-c2ccc3c(c2)CCN3C(=O)CCc2ccccc2)c2c(N)n[nH]c(=O)c21,191 nM,,149 nM,232 nM,42.1 nM
CC(C)(C)c1ccc(Cn2nc(-c3ccc4c(c3)CCN4C(=O)Cc3cccc(OC(F)(F)F)c3)c3c(N)n[nH]c(=O)c32)cc1,> 1000 nM,,> 1000 nM,> 1000 nM,659 nM
CCn1cc(-c2ccc3c(c2)CCN3C(=O)Cc2cccc(OC(F)(F)F)c2)c2ncnc(N)c21,> 1000 nM,,,,
CCn1nc(-c2ccc3c(c2)CCN3C(=O)CC2CCCCC2)c2c(N)n[nH]c(=O)c21,> 1000 nM,,891 nM,879 nM,64.5 nM
CCn1nc(-c2ccc3c(c2)CCN3C(=O)Cc2ccc3c(c2)OCO3)c2c(N)n[nH]c(=O)c21,915 nM,,562 nM,703 nM,114 nM
CCc1nc(-c2ccc3c(c2)CCN3C(=O)Cc2cccc(OC(F)(F)F)c2)c2c(N)nccn12,112 nM,,,,
CCn1nc(-c2ccc3c(c2)CCN3C(C)=O)c2c(N)n[nH]c(=O)c21,> 1000 nM,,,,
Nc1nc2cccc(-c3ccc4c(c3)CCN4C(=O)Cc3cccc(OC(F)(F)F)c3)n2n1,> 1000 nM,,,,
CCn1cc(-c2ccc3c(c2)CCN3C(=O)Cc2cccc(OC(F)(F)F)c2)c2c(=O)[nH]cnc21,> 1000 nM,,,,
CCn1nc(-c2ccc3c(c2)CCN3C(=O)Cc2cccc(F)c2)c2c(N)n[nH]c(=O)c21,> 1000 nM,,597 nM,722 nM,45.6 nM

# Second part, led by results:
IC50 [1],half-life [2],SMILES,EC50 (HT-29),EC50 (U-937),EC50 (L929)
290 nM,,Nc1n[nH]c(=O)c2c1c(-c1ccc3c(c1)CCN3C(=O)Cc1cccc(OC(F)(F)F)c1)nn2Cc1ccc(F)cc1,257 nM,112 nM,30.2 nM
140 nM,,Cn1nc(-c2ccc3c(c2)CCN3C(=O)Cc2cccc(OC(F)(F)F)c2)c2c(N)n[nH]c(=O)c21,21.4 nM,37.1 nM,3.4 nM
97.6 nM,,CCn1nc(-c2ccc3c(c2)CCN3C(=O)CCc2cccc(OC(F)(F)F)c2)c2c(N)n[nH]c(=O)c21,4.62 nM,4.82 nM,20.3 nM
105 nM,18.3 min,CCCCn1nc(-c2ccc3c(c2)CCN3C(=O)Cc2cccc(OC(F)(F)F)c2)c2c(N)n[nH]c(=O)c21,8.23 nM,15.5 nM,1.2 nM
133 nM,18.1 min,CC(C)Cn1nc(-c2ccc3c(c2)CCN3C(=O)Cc2cccc(OC(F)(F)F)c2)c2c(N)n[nH]c(=O)c21,6.19 nM,9.75 nM,1.36 nM
95.9 nM,49.9 min,Nc1n[nH]c(=O)c2c1c(-c1ccc3c(c1)CCN3C(=O)Cc1cccc(OC(F)(F)F)c1)nn2CC1CCCC1,15.7 nM,12.7 nM,3.95 nM
> 1000 nM,,Nc1n[nH]c(=O)c2c1c(-c1ccc3c(c1)CCN3C(=O)Cc1cccc(OC(F)(F)F)c1)nn2CCC1CCCC1,134 nM,60.1 nM,7.61 nM
> 1000 nM,,CCn1nc(-c2ccc3c(c2)CCN3C(=O)c2cccc(OC(F)(F)F)c2)c2c(N)n[nH]c(=O)c21,> 1000 nM,> 1000 nM,> 1000 nM
> 1000 nM,100 min,Nc1n[nH]c(=O)c2c1c(-c1ccc3c(c1)CCN3C(=O)Cc1cccc(OC(F)(F)F)c1)nn2CCC1CNC1,> 1000 nM,> 1000 nM,366 nM
> 1000 nM,,Nc1n[nH]c(=O)c2c1c(-c1ccc3c(c1)CCN3C(=O)Cc1cccc(OC(F)(F)F)c1)nn2CCC1CCCCC1,246 nM,103 nM,16.2 nM
135 nM,,CCn1nc(-c2ccc3c(c2)CCN3C(=O)Cc2cccc(C(F)(F)F)c2)c2c(N)n[nH]c(=O)c21,11.3 nM,1.38 nM,1.75 nM
512 nM,,Nc1n[nH]c(=O)c2c1c(-c1ccc3c(c1)CCN3C(=O)Cc1cccc(OC(F)(F)F)c1)nn2CCN1CCCC1,63 nM,173 nM,54.4 nM
> 1000 nM,,CCn1nc(-c2ccc3c(c2)CCN3Cc2cccc(OC(F)(F)F)c2)c2c(N)n[nH]c(=O)c21,> 1000 nM,990 nM,451 nM
114 nM,,CC(C)CCn1nc(-c2ccc3c(c2)CCN3C(=O)Cc2cccc(OC(F)(F)F)c2)c2c(N)n[nH]c(=O)c21,8.24 nM,18.5 nM,6.36 nM
70.3 nM,,Nc1n[nH]c(=O)c2c1c(-c1ccc3c(c1)CCN3C(=O)Cc1cccc(OC(F)(F)F)c1)nn2CCC1CC1,18.2 nM,4.04 nM,3.67 nM
68.4 nM,,Nc1n[nH]c(=O)c2c1c(-c1ccc3c(c1)CCN3C(=O)Cc1cccc(OC(F)(F)F)c1)nn2CC1CCC1,34 nM,1.87 nM,1.35 nM
177 nM,,CCn1nc(-c2ccc3c(c2)CCN3C(=O)Cc2ccc(OC(F)(F)F)cc2)c2c(N)n[nH]c(=O)c21,> 1000 nM,638 nM,726 nM
